From ChEMBL document CHEMBL1201862, “PubChem BioAssay data set” (2004)
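Exposure lasted 48 hours, with cells grown in 96-well plates and compounds tested at five concentrations. Abbreviation: GI50, concentration required for 50% inhibition of growth.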 Activity calls are given as the source filed them. Rule as the data show it: active = GI50 up to about 1.1 µM and inactive = higher.

Experiments:
Test in all cases: NCI anticancer screen, dose series, 48 h
RPMI-8226 = tested on: RPMI-8226
MDA-MB-435 = tested on: MDA-MB-435
KM12 = tested on: KM12
SK-OV-3 = tested on: SK-OV-3
HCC 2998 = tested on: HCC 2998
UO-31 = tested on: UO-31
NCI/ADR-RES = tested on: NCI/ADR-RES
IGROV-1 = tested on: IGROV-1
SF-539 = tested on: SF-539
UACC-62 = tested on: UACC-62
NCI-H23 = tested on: NCI-H23
SNB-19 = tested on: SNB-19
HCT-116 = tested on: HCT-116
CAKI-1 = tested on: CAKI-1
SF-295 = tested on: SF-295
HOP-62 = tested on: HOP-62
MOLT-4 = tested on: MOLT-4
T47D = tested on: T47D
SK-MEL-2 = tested on: SK-MEL-2
TK-10 = tested on: TK-10

Structure (SMILES)	GI50 (RPMI-8226)	GI50 (MDA-MB-435)	GI50 (KM12)	GI50 (SK-OV-3)	GI50 (HCC 2998)	GI50 (UO-31)	GI50 (NCI/ADR-RES)	GI50 (IGROV-1)	GI50 (SF-539)	GI50 (UACC-62)	GI50 (NCI-H23)	GI50 (SNB-19)	GI50 (HCT-116)	GI50 (CAKI-1)	GI50 (SF-295)	GI50 (HOP-62)	GI50 (MOLT-4)	GI50 (T47D)	GI50 (SK-MEL-2)	GI50 (TK-10)
O=C1NC(N2CCOCC2)=N/C1=C\c1ccccc1	> 100 µM (inactive)	> 100 µM (inactive)	> 100 µM (inactive)	> 100 µM (inactive)	> 100 µM (inactive)	> 100 µM (inactive)	> 100 µM (inactive)	> 100 µM (inactive)	> 100 µM (inactive)	> 100 µM (inactive)	> 100 µM (inactive)	> 100 µM (inactive)	> 100 µM (inactive)	> 100 µM (inactive)	> 100 µM (inactive)	> 100 µM (inactive)	> 100 µM (inactive)	> 100 µM (inactive)	> 100 µM (inactive)	> 100 µM (inactive)
CC(C)Cn1cnc2c(Sc3c([N+](=O)[O-])ncn3C)nc(N)nc21	> 52.7 µM (inactive)	37.5 µM (inactive)	> 100 µM (inactive)	> 100 µM (inactive)	> 62.7 µM (inactive)	> 38 µM (inactive)	> 100 µM (inactive)	> 47.5 µM (inactive)	> 23.7 µM (inactive)	> 50.2 µM (inactive)	> 65.5 µM (inactive)	> 100 µM (inactive)	> 60.1 µM (inactive)	22.8 µM (inactive)	> 100 µM (inactive)	> 80.4 µM (inactive)	> 42.2 µM (inactive)	30.4 µM (inactive)	22 µM (inactive)	> 41.1 µM (inactive)
ClCCCCCc1c2nc(c(CCCCCCl)c3ccc([nH]3)c(CCCCCCl)c3nc(c(CCCCCCl)c4ccc1[nH]4)C=C3)C=C2	> 100 µM (inactive)	> 100 µM (inactive)	> 100 µM (inactive)	> 100 µM (inactive)	> 100 µM (inactive)	> 100 µM (inactive)	> 100 µM (inactive)	> 100 µM (inactive)	> 100 µM (inactive)	> 100 µM (inactive)	> 100 µM (inactive)	> 100 µM (inactive)	> 100 µM (inactive)	> 100 µM (inactive)	> 100 µM (inactive)	> 100 µM (inactive)	> 100 µM (inactive)	> 100 µM (inactive)	> 100 µM (inactive)	> 100 µM (inactive)
CCN(CCCl)c1cccc(NC(=O)c2ccc(C(=O)Nc3cccc(CN(C)C)c3)cc2)c1	0.267 µM (active)	0.0243 µM (active)	0.129 µM (active)	0.298 µM (active)	0.123 µM (active)	0.475 µM (active)	2.76 µM (inactive)	0.0344 µM (active)	0.244 µM (active)	0.0785 µM (active)	0.0935 µM (active)	0.0497 µM (active)	0.0611 µM (active)	0.302 µM (active)	0.125 µM (active)	0.0641 µM (active)	0.0246 µM (active)	0.0412 µM (active)	0.0301 µM (active)	0.372 µM (active)
Cn1c(=O)c2c(nc3n(CCCCl)c(=O)ccn23)n(C)c1=O	> 100 µM (inactive)	> 100 µM (inactive)	> 100 µM (inactive)	> 100 µM (inactive)	> 100 µM (inactive)	> 100 µM (inactive)	> 100 µM (inactive)	> 100 µM (inactive)	> 100 µM (inactive)	> 100 µM (inactive)	> 100 µM (inactive)	> 100 µM (inactive)	> 100 µM (inactive)	> 100 µM (inactive)	> 100 µM (inactive)	> 100 µM (inactive)	> 100 µM (inactive)	> 100 µM (inactive)	> 100 µM (inactive)	> 100 µM (inactive)
Cc1ccc(N2C(=O)C(=O)N(/N=C3\C(=O)Nc4ccccc43)C2=S)cc1	40.6 µM (inactive)	36.6 µM (inactive)	65.8 µM (inactive)	> 100 µM (inactive)	93.5 µM (inactive)	> 100 µM (inactive)	28.8 µM (inactive)	95.5 µM (inactive)	> 100 µM (inactive)	92.9 µM (inactive)	86.7 µM (inactive)	> 100 µM (inactive)	65.8 µM (inactive)	92.5 µM (inactive)	54.1 µM (inactive)	> 100 µM (inactive)	28.8 µM (inactive)	38.2 µM (inactive)	30.3 µM (inactive)	> 100 µM (inactive)
Cc1cc(CS(=O)(=O)/C=C/c2ccccc2[N+](=O)[O-])c(CS(=O)(=O)/C=C/c2ccccc2[N+](=O)[O-])cc1C	9.42 µM (inactive)	> 41.9 µM (inactive)	81.8 µM (inactive)	24 µM (inactive)	> 85.3 µM (inactive)	> 82 µM (inactive)	53.5 µM (inactive)	30.8 µM (inactive)	14.4 µM (inactive)	23.6 µM (inactive)	17.7 µM (inactive)	28.1 µM (inactive)	37 µM (inactive)	35.7 µM (inactive)	16.9 µM (inactive)	19.1 µM (inactive)	70.1 µM (inactive)	> 100 µM (inactive)	15.4 µM (inactive)	35.4 µM (inactive)
CCOC(=O)Nc1cc2c(c(N)n1)N=C(c1ccc(Cl)cc1Cl)CN2	< 0.01 µM (active)	< 0.01 µM (active)	< 0.0174 µM (active)	0.509 µM (active)	0.0995 µM (active)	0.052 µM (active)	< 0.0154 µM (active)	0.292 µM (active)	< 0.0173 µM (active)	< 0.0105 µM (active)	0.0834 µM (active)	0.019 µM (active)	< 0.01 µM (active)	0.0383 µM (active)	0.0112 µM (active)	< 0.0189 µM (active)	< 0.0228 µM (active)	15.6 µM (inactive)	< 0.01 µM (active)	3.78 µM (inactive)
CC(=O)O[C@H]1CC[C@H]2[C@@H]3CCC4C(C)=NNC(=O)C4[C@H]3CC[C@]12C (stereo not given in full)	> 100 µM (inactive)	> 100 µM (inactive)	> 100 µM (inactive)	> 95.1 µM (inactive)	> 100 µM (inactive)	> 100 µM (inactive)	45.4 µM (inactive)	27 µM (inactive)	65.9 µM (inactive)	> 100 µM (inactive)	> 60.7 µM (inactive)	33.5 µM (inactive)	> 73.5 µM (inactive)	> 90.2 µM (inactive)	41.5 µM (inactive)	19.8 µM (inactive)	> 100 µM (inactive)	> 100 µM (inactive)	> 75.2 µM (inactive)	> 76.6 µM (inactive)
O=C1C2CCN(CC2)C1CN1CCOCC1 (stereo not given)	2.13 µM (inactive)	15.5 µM (inactive)	16.6 µM (inactive)	17.2 µM (inactive)	15.7 µM (inactive)	3.84 µM (inactive)	1.96 µM (inactive)	19.3 µM (inactive)	15.4 µM (inactive)	16.1 µM (inactive)	9.95 µM (inactive)	18.7 µM (inactive)	1.87 µM (inactive)	2.16 µM (inactive)	19.4 µM (inactive)	18.5 µM (inactive)	2.33 µM (inactive)	1.92 µM (inactive)	17.5 µM (inactive)	6.82 µM (inactive)
C/C(=N\Nc1nc2cc(C(F)(F)F)ccc2s1)c1ccccn1	0.402 µM (active)	0.469 µM (active)	0.526 µM (active)	0.245 µM (active)	2.6 µM (inactive)	0.0316 µM (active)	0.291 µM (active)	0.123 µM (active)	1.42 µM (inactive)	0.303 µM (active)	0.452 µM (active)	0.968 µM (active)	0.0783 µM (active)	0.0537 µM (active)	0.408 µM (active)	2.41 µM (inactive)	0.0264 µM (active)	0.239 µM (active)	0.594 µM (active)	2.52 µM (inactive)
CCCCC(=C=C(C)CO)C1CCCN1C(=O)OC(C)(C)C (stereo not given)	13.9 µM (inactive)	18.8 µM (inactive)	18.4 µM (inactive)	24.5 µM (inactive)	8.02 µM (inactive)	22.9 µM (inactive)	16.8 µM (inactive)	17.9 µM (inactive)	16.9 µM (inactive)	13.6 µM (inactive)	19 µM (inactive)	23.3 µM (inactive)	15.6 µM (inactive)	21.8 µM (inactive)	16.3 µM (inactive)	20 µM (inactive)	12.3 µM (inactive)	22.5 µM (inactive)	16.5 µM (inactive)	19.4 µM (inactive)
O=C1NC2c3c(I)sc(I)c3/C(=N\O)C2O1 (stereo not given)	67.9 µM (inactive)	26.5 µM (inactive)	30.1 µM (inactive)	34.5 µM (inactive)	35.1 µM (inactive)	15.7 µM (inactive)	20.4 µM (inactive)	19.8 µM (inactive)	14.2 µM (inactive)	20.7 µM (inactive)	23.2 µM (inactive)	21.7 µM (inactive)	25.1 µM (inactive)	32.7 µM (inactive)	45.6 µM (inactive)	30.5 µM (inactive)	28.2 µM (inactive)	35.2 µM (inactive)	63.7 µM (inactive)	48.5 µM (inactive)
N#Cc1cc2c(cc1Cl)Sc1nnc(Nc3ccccc3)n1S2(=O)=O	0.692 µM (active)	2.08 µM (inactive)	2.06 µM (inactive)	5.04 µM (inactive)	1.55 µM (inactive)	1.78 µM (inactive)	1.78 µM (inactive)	2.2 µM (inactive)	2.07 µM (inactive)	1.83 µM (inactive)	1.62 µM (inactive)	2.3 µM (inactive)	2.04 µM (inactive)	1.72 µM (inactive)	3 µM (inactive)	1.57 µM (inactive)	2.02 µM (inactive)	2.29 µM (inactive)	2.55 µM (inactive)	4.22 µM (inactive)
